Measured values taken from ChEMBL document CHEMBL1122475, “Antidepressant activity of 5-aryl-2,3,5,6-tetrahydroimidazo[2,1-a]isoquinolin-5-ols” (1983).
The source made the active and inactive calls. The calls are words filed in the database; no cut-off is given here.

Key:
Mus musculus [1] = test: Dose at which 50% convulsions occurred in mice (ip); type: functional
Mus musculus [2] = test: Dose required to induce hyperactivity in mice (ip); not active at a dose of 50.0 mg/kg; type: functional, organism-based; design: dose 50 mg/kg
Mus musculus [3] = test: Dose required to induce hypersensitivity in mice (ip); type: functional
Mus musculus [4] = test: Minimal dose required to cause aggressiveness in mice after ip administration; not active at a dose of 50.0 mg/kg; type: functional, organism-based; design: dose 50 mg/kg
Mus musculus [5] = test: Minimal dose required to cause piloerection in mice after ip administration; type: functional
Mus musculus [6] = test: Minimal dose required to induce hyperaesthesia in mice (ip); type: functional
Mus musculus [7] = test: Minimal dose required to induce in mice exophthalmus (ip); type: functional
Mus musculus [8] = test: Minimal dose required to induce in mice straub tail (ip); type: functional
Mus musculus [9] = test: Inhibition of reserpine (5 mg/kg i.p.) induced hypothermia in mice 2 hr after i.p. administration.; type: functional; details: ip
Mus musculus [10] = test: Lethal dose by i.p. administration.; type: functional; details: ip
Mus musculus [11] = test: Inhibition of reserpine (5 mg/kg i.p.) induced hypothermia in mice 4 hr after i.p. administration.; type: functional; details: ip
Mus musculus [12] = test: Dose required to induce hypersensitivity in mice (ip); not active at a dose of 50.0 mg/kg; type: functional, organism-based; design: dose 50 mg/kg
Mus musculus [13] = test: Minimal dose required to cause piloerection in mice after ip administration; not active at a dose of 50.0 mg/kg; type: functional, organism-based; design: dose 50 mg/kg
Mus musculus [14] = test: Minimal dose required to induce hyperaesthesia in mice (ip); not active at a dose of 50.0 mg/kg; type: functional, organism-based; design: dose 50 mg/kg
Mus musculus [15] = test: Minimal dose required to induce in mice exophthalmus (ip); not active at a dose of 50.0 mg/kg; type: functional, organism-based; design: dose 50 mg/kg
Mus musculus [16] = test: Minimal dose required to induce in mice straub tail (ip); not active at a dose of 50.0 mg/kg; type: functional, organism-based; design: dose 50 mg/kg
Mus musculus [17] = test: Dose required to induce hyperactivity in mice (ip); not active at a dose of 12.5 mg/kg; type: functional, organism-based; design: dose 12.5 mg/kg
Mus musculus [18] = test: Minimal dose required to cause aggressiveness in mice after ip administration; not active at a dose of 12.5 mg/kg; type: functional, organism-based; design: dose 12.5 mg/kg
Felis catus [19] = test: Compound tested to induce facilitation of monosynaptic spikes in spinal ventral root by stimulation of the dorsal root (DR-VR) after iv administration in cats; 0.3-1.0; type: functional
Mus musculus [20] = test: Dose required to induce hyperactivity in mice (ip); not active at a dose of 25.0 mg/kg; type: functional, organism-based; design: dose 25 mg/kg
Mus musculus [21] = test: Dose required to induce hypersensitivity in mice (ip); not active at a dose of 25.0 mg/kg; type: functional, organism-based; design: dose 25 mg/kg
Mus musculus [22] = test: Minimal dose required to cause aggressiveness in mice after ip administration; not active at a dose of 25.0 mg/kg; type: functional, organism-based; design: dose 25 mg/kg
Mus musculus [23] = test: Minimal dose required to cause piloerection in mice after ip administration; not active at a dose of 25.0 mg/kg; type: functional, organism-based; design: dose 25 mg/kg
Felis catus [24] = test: Compound tested to induce facilitation of monosynaptic spikes in spinal ventral root by stimulation of the dorsal root (DR-VR) after iv administration in cats; type: functional

| Compound | CD50 (Mus musculus [1]) [mg/kg] | ED50 (Mus musculus [2]) | MD (Mus musculus [4]) | MD (Mus musculus [5]) [mg/kg] | MD (Mus musculus [6]) [mg/kg] | MD (Mus musculus [7]) [mg/kg] | MD (Mus musculus [8]) [mg/kg] | ED50 (Mus musculus [9]) [mg/kg] | LD50 (Mus musculus [10]) [mg/kg] | ED50 (Mus musculus [11]) [mg/kg] | ED50 (Mus musculus [12]) | MD (Mus musculus [16]) | further results |
| --- | --- | --- | --- | --- | --- | --- | --- | --- | --- | --- | --- | --- | --- |
| COc1ccc(C2(O)Cc3ccccc3C3=NCCN32)cc1 (configuration not stated) | 37.5 | inactive | inactive | 37.5 | 37.5 | 18.8 | 18.8 | 8.4 | 138 | 25.6 | – | – | ED50 (Mus musculus [3]): 50 mg/kg |
| CN(C)CCCN1c2ccccc2CCc2ccccc21 [IMIPRAMINE] | – | – | – | – | – | – | – | 6.3 | – | 12.8 | – | – | – |
| OC1(c2cccnc2)Cc2ccccc2C2=NCCN21 (configuration not stated) | 75 | inactive | inactive | – | – | – | – | 7 | 68.8 | > 25.6 | inactive | inactive | MD (Mus musculus [13]): inactive; MD (Mus musculus [14]): inactive; MD (Mus musculus [15]): inactive |
| OC1(c2ccc3c(c2)OCO3)Cc2ccccc2C2=NCCN21 (configuration not stated) | 18.8 | – | – | 9.4 | 4.7 | 4.7 | 4.7 | 0.1 | 10.2 | 0.5 | – | – | ED50 (Mus musculus [17]): inactive; ED50 (Mus musculus [3]): 12.5 mg/kg; MD (Mus musculus [18]): inactive |
| OC1(c2ccccc2F)Cc2ccccc2C2=NCCN21 (configuration not stated) | – | – | – | – | – | – | – | 5.1 | 35.5 | > 11.5 | – | – | – |
| OC1(c2cccc(C(F)(F)F)c2)Cc2ccccc2C2=NCCN21 (configuration not stated) | 75 | inactive | inactive | 37.5 | 37.5 | 37.5 | – | 1.9 | 50 | > 25.6 | inactive | inactive | Activity (Felis catus [19]): 0.3 mg/kg |
| OC1(c2ccccc2Cl)Cc2ccccc2C2=NCCN21 (configuration not stated) | 37.5 | – | – | – | 18.8 | 9.4 | 25 | 6.1 | 34.4 | 11.5 | – | – | ED50 (Mus musculus [20]): inactive; ED50 (Mus musculus [21]): inactive; MD (Mus musculus [22]): inactive; MD (Mus musculus [23]): inactive |
| OC1(c2cccc(Cl)c2)Cc2ccccc2C2=NCCN21 (configuration not stated) | 37.5 | – | – | – | – | – | – | 2.1 | 37.5 | 11.5 | – | – | – |
| OC1(c2ccc(Cl)cc2Cl)Cc2ccccc2C2=NCCN21 (configuration not stated) | 75 | inactive | inactive | – | – | – | – | 5.4 | 81.3 | > 25.6 | inactive | inactive | Activity (Felis catus [24]): >3 mg/kg; MD (Mus musculus [13]): inactive; MD (Mus musculus [14]): inactive; MD (Mus musculus [15]): inactive |
